In assay [1] the target is NET (Homo sapiens, UniProt P23975). Nature of the assay: fluorescence-based norepinephrine uptake assay (Tsuruda et al. 2010). The class given is cell-based. The settings on record: norepinephrine reuptake inhibition, fluorescence-based assay (data indicated by an asterisk); for IC50: read-out: NET pIC50 (converted).
The target of assay [2] is SERT (Homo sapiens, UniProt P31645). The experiment in a line: fluorescence-based serotonin uptake assay (Tsuruda et al. 2010). The class given is cell-based. As to conditions: serotonin reuptake inhibition, fluorescence-based assay (data indicated by an asterisk); for IC50: read-out: SERT pIC50 (converted).
Chain of SERT (P31645 whole entry, species assumed): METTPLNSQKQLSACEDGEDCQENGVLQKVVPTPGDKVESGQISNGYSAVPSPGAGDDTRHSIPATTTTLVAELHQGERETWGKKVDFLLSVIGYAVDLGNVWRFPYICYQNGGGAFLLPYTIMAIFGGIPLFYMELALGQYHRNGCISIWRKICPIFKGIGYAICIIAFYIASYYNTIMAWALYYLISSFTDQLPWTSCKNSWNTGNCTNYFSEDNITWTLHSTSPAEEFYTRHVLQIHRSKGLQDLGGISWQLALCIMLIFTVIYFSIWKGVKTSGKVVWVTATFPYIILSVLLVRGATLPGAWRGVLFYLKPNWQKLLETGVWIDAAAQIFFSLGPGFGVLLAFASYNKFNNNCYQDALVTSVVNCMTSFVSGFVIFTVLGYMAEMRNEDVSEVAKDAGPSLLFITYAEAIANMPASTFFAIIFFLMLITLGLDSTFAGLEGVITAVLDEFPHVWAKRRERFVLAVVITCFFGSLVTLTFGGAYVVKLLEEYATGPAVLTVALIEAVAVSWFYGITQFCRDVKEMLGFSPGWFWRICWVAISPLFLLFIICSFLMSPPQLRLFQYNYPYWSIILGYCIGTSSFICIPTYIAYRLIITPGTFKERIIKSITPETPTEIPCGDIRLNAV

Marks after values point to notes of the source that are not given here.

Experimental findings from US8455665B2, “3-phenoxymethylpyrrolidine compounds” (Theravance, Inc., priority 2009, dated 2013) are described below.

Chain of NET (P23975 whole entry): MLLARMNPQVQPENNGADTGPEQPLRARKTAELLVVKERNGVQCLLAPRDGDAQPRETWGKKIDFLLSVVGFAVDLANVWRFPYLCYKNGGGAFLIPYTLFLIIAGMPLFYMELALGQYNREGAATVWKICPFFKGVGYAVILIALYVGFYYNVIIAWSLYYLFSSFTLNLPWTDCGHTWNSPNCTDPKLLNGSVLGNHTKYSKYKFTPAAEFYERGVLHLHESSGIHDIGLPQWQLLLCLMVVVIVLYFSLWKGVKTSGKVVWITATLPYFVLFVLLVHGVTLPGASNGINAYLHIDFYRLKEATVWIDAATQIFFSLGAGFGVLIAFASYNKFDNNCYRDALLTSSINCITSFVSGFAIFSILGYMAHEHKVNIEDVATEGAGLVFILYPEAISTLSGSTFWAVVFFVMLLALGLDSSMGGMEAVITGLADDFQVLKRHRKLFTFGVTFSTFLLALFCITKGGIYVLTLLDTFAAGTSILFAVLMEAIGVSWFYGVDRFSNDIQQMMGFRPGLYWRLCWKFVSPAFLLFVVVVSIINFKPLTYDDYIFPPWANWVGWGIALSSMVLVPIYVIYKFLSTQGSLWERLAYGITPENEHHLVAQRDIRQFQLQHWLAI

For the compound `CC(C)SC[C@@H](Oc1cccc(F)c1Cl)[C@H]1CCNC1` [Example 19-4, (S)-3-[(S)-1-(2-Chloro-3-fluorophenoxy)-2-isopropylsulfanylethyl]pyrrolidine], the IC50 in assay [1] and in assay [2] was not above 10 nM throughout.
As to `CCOC[C@H](Oc1ccc(C(F)(F)F)cc1Cl)[C@H]1CCNC1` [Example 7-19, (S)-3-[(R)-1-(2-Chloro-4-trifluoromethylphenoxy)-2-ethoxyethyl]pyrrolidine], the IC50 in assay [1] and in assay [2] was not above 10 nM in each case.
On to `CC(C)OC[C@@H](Oc1cccc(F)c1Cl)[C@H]1CCNC1` [Example 9-11, (S)-3-[(S)-1-(2-Chloro-3-fluorophenoxy)-2-isopropoxyethyl]pyrrolidine], for which the IC50 in assay [1] and in assay [2] was not above 10 nM throughout.
As for `CCOC[C@H](Oc1cccc(C(F)(F)F)c1)[C@H]1CCNC1` [Example 7-2, (S)-3-[(R)-2-Ethoxy-1-(3-trifluoromethylphenoxy)ethyl]pyrrolidine], the IC50 in assay [1] and in assay [2] was not above 100 nM in each case.
`Cc1c(Cl)cccc1O[C@H](COC(C)C)[C@H]1CCNC1` [Example 9-15, (S)-3-[(S)-1-(3-Chloro-2-methylphenoxy)-2-isopropoxyethyl]pyrrolidine]: the IC50 in assay [1] and in assay [2] was not above 10 nM each time.
On to `CCOC[C@H](Oc1cccc(F)c1F)[C@H]1CCNC1` [Example 7-11, (S)-3-[(R)-1-(2,3-Difluorophenoxy)-2-ethoxyethyl]pyrrolidine], for which the IC50 was not above 10 nM in assay [1] and not above 100 nM in assay [2].
For `CCOC[C@H](Oc1ccc(C(F)(F)F)cc1)[C@H]1CCNC1` [Example 7-6, (S)-3-[(R)-2-Ethoxy-1-(4-trifluoromethylphenoxy)ethyl]pyrrolidine] the same measures were not above 100 nM and not above 10 nM.
With `CCSC[C@H](Oc1ccc(Cl)c(Cl)c1)[C@H]1CCNC1.O=C(O)C(F)(F)F` [Example 17-9], the “NET pIC50” value in assay [1] is “≧8.0*”. The “SERT pIC50” value in assay [2] is “≧8.0*”.
On to `CSC[C@@H](Oc1cccc(Cl)c1C)[C@H]1CCNC1.O=C(O)C(F)(F)F` [Example 15-6], for which, in assay [1], the “NET pIC50” value is recorded as “≧8.0*”. The “SERT pIC50” value in assay [2] was “≧8.0*”.
On to `CCSC[C@H](Oc1ccc(Cl)cc1)[C@H]1CCNC1.O=C(O)C(F)(F)F` [Example 17-10], for which the “NET pIC50” value in assay [1] is given as “≧8.0*”. The “SERT pIC50” value in assay [2] is “≧8.0*”.
Turning to `CCOC[C@@H](Oc1cccc(Cl)c1C(F)(F)F)[C@H]1CCNC1` [Example 7-16, (S)-3-[(S)-1-(3-Chloro-2-trifluoromethylphenoxy)-2-ethoxyethyl]pyrrolidine], the figures for the IC50 in assay [1] and in assay [2] were not above 100 nM and not above 10 nM, respectively.
Turning to `CSC[C@H](Oc1cccc(Cl)c1Cl)[C@H]1CCNC1.O=C(O)C(F)(F)F` [Example 15-1], the “NET pIC50” value in assay [1] is given as “≧8.0*”. For the same compound, the “SERT pIC50” value in assay [2] is on record as “≧8.0*”.
Consider `CSC[C@@H](Oc1cccc(Cl)c1C(F)(F)F)[C@H]1CCNC1.O=C(O)C(F)(F)F` [Example 15-8], for which the “NET pIC50” value in assay [1] is recorded as “≧7.0*”. For the same compound, the “SERT pIC50” value in assay [2] is on record as “≧8.0*”.
For `CSC[C@@H](Oc1cccc(F)c1Cl)[C@H]1CCNC1.O=C(O)C(F)(F)F` [Example 15-4], in that order: “≧8.0*” and “≧8.0*”.
Take `CCOC[C@H](Oc1cccc(Cl)c1Cl)[C@H]1CCNC1` [Example 7-7, (S)-3-[(R)-1-(2,3-Dichlorophenoxy)-2-ethoxyethyl]pyrrolidine]: the IC50 in assay [1] and in assay [2] was not above 10 nM each time.
As to `CC(C)SC[C@@H](Oc1ccc(Cl)cc1Cl)[C@H]1CCNC1` [Example 19-5, (S)-3-[(S)-1-(2,4-Dichlorophenoxy)-2-isopropylsulfanylethyl]pyrrolidine], the results for the IC50 in assay [1] and in assay [2] were not above 100 nM and not above 10 nM, respectively.
`CCSC[C@@H](Oc1cccc(Cl)c1C)[C@H]1CCNC1.O=C(O)C(F)(F)F` [Example 17-6]: the “NET pIC50” value in assay [1] was “≧8.0*”. Besides, the “SERT pIC50” value in assay [2] is recorded as “≧8.0*”.
On to `CCOC[C@@H](Oc1cccc(Cl)c1C)[C@H]1CCNC1` [Example 7-14, (S)-3-[(S)-1-(3-Chloro-2-methylphenoxy)-2-ethoxyethyl]pyrrolidine], for which the IC50 in assay [1] and in assay [2] was not above 10 nM in each case.
`CC(C)OC[C@@H](Oc1cccc(C(F)(F)F)c1)[C@H]1CCNC1` [Example 9-3, (S)-3-[(S)-2-Isopropoxy-1-(3-trifluoromethylphenoxy)ethyl]pyrrolidine]: the results for the IC50 in assay [1] and in assay [2] were not above 100 nM and not above 10 nM, respectively.
For `CC(C)OC[C@H](Oc1c(Cl)cccc1Cl)[C@H]1CCNC1` [Example 9-29, (S)-3-[(R)-1-(2,6-Dichlorophenoxy)-2-isopropoxyethyl]pyrrolidine] the same measures were not above 10 nM and not above 100 nM.
Take `Clc1ccccc1O[C@@H](COCc1ccccc1)[C@H]1CCNC1` [Example 10-1]: in assay [1], the “NET pIC50” value is on record as “≧8.0*”. Also, the “SERT pIC50” value in assay [2] was “≧7.0*”.
For `CCOC[C@H](Oc1cccc(Cl)c1C)[C@H]1CCNC1` [Example 7-13, (S)-3-[(R)-1-(3-Chloro-2-methylphenoxy)-2-ethoxyethyl]pyrrolidine], the IC50 in assay [1] and in assay [2] was not above 10 nM each time.
Consider `CCOC[C@H](Oc1ccc(Cl)cc1Cl)[C@H]1CCNC1` [Example 6, (S)-3-[(R)-1-(2,4-Dichlorophenoxy)-2-ethoxyethyl]pyrrolidine], for which the IC50 in assay [1] and in assay [2] was not above 10 nM in each case.
For `CCOC[C@@H](Oc1cccc(C(F)(F)F)c1)[C@H]1CCNC1` [Example 7-3, (S)-3-[(S)-2-Ethoxy-1-(3-trifluoromethylphenoxy)ethyl]pyrrolidine], the IC50 in assay [1] and in assay [2] was not above 100 nM each time.
As to `CCOC[C@H](Oc1c(F)ccc(F)c1Cl)[C@H]1CCNC1` [Example 7-30, (S)-3-[(R)-1-(2-Chloro-3,6-difluorophenoxy)-2-ethoxyethyl]pyrrolidine], the IC50 in assay [1] is not above 10 nM; in assay [2] it was not above 100 nM.
For `CCOC[C@H](Oc1c(Cl)ccc(Cl)c1F)[C@H]1CCNC1` [Example 7-32, (S)-3-[(R)-1-(3,6-Dichloro-2-fluorophenoxy)-2-ethoxyethyl]pyrrolidine], in that order: not above 10 nM and not above 100 nM.
For `CCOC[C@@H](Oc1ccc(Cl)cc1Cl)[C@H]1CCNC1` [Example 7-17, (S)-3-[(S)-1-(2,4-Dichlorophenoxy)-2-ethoxyethyl]pyrrolidine] the same measures were not above 100 nM and not above 10 nM.
For `CCOC[C@H](Oc1cccc(F)c1Cl)[C@H]1CCNC1` [Example 7-9, (S)-3-[(R)-1-(2-Chloro-3-fluorophenoxy)-2-ethoxyethyl]pyrrolidine] the same measures were not above 10 nM and not above 100 nM.
On to `CC(C)SC[C@H](Oc1cccc(Cl)c1Cl)[C@H]1CCNC1` [Example 19-1, (S)-3-[(R)-1-(2,3-Dichlorophenoxy)-2-isopropylsulfanylethyl]pyrrolidine], for which the IC50 in assay [1] and in assay [2] was not above 10 nM throughout.
As to `Clc1cccc(Cl)c1OC(COCc1ccccc1)C1CCNC1` [Example 10-4, ((S)-3-[(R)-2-Benzyloxy-1-(2,6-dichlorophenoxy)ethyl]pyrrolidine], the IC50 in assay [1] was not above 10 nM; in assay [2], not above 100 nM.
On to `CC(C)OC[C@H](Oc1cccc(C(F)(F)F)c1)[C@H]1CCNC1` [Example 9-4, (S)-3-[(R)-2-Isopropoxy-1-(3-trifluoromethylphenoxy)ethyl]pyrrolidine], for which the IC50 in assay [1] and in assay [2] was not above 100 nM throughout.
Regarding `CSC[C@H](Oc1cccc(Cl)c1C)[C@H]1CCNC1.O=C(O)C(F)(F)F` [Example 15-5], the “NET pIC50” value in assay [1] was “≧8.0*”. The “SERT pIC50” value in assay [2] is “≧8.0*”.
Take `CC(C)OC[C@H](Oc1cccc(Cl)c1Cl)[C@H]1CCNC1` [Example 9-7, (S)-3-[(R)-1-(2,3-Dichlorophenoxy)-2-isopropoxyethyl]pyrrolidine]: the IC50 in assay [1] and in assay [2] was not above 10 nM in each case.
As for `CCOC[C@H](Oc1c(Cl)cc(F)cc1Cl)[C@H]1CCNC1` [Example 7-31, (S)-3-[(R)-1-(2,6-Dichloro-4-fluorophenoxy)-2-ethoxyethyl]pyrrolidine], the IC50 in assay [1] was not above 10 nM; in assay [2] it was not above 100 nM.
For `CC(C)SC[C@@H](Oc1cccc(Cl)c1C(F)(F)F)[C@H]1CCNC1` [Example 19-6, (S)-3-[(S)-1-(3-Chloro-2-trifluoromethylphenoxy)-2-isopropylsulfanylethyl]pyrrolidine], in that order: not above 10 nM and not above 10 nM.
Take `CCOC[C@H](Oc1ccc(Cl)cc1C)[C@H]1CCNC1` [Example 7-22, (S)-3-[(R)-1-(4-Chloro-2-methylphenoxy)-2-ethoxyethyl]pyrrolidine]: the IC50 in assay [1] and in assay [2] was not above 10 nM each time.
On to `CC(C)SC[C@H](Oc1ccc(Cl)c(Cl)c1)[C@H]1CCNC1` [Example 19-7, (S)-3-[(R)-1-(3,4-Dichlorophenoxy)-2-isopropylsulfanylethyl]-pyrrolidine], for which the IC50 in assay [1] and in assay [2] was not above 10 nM each time.
Consider `Cc1c(Cl)cccc1OC(COCc1ccccc1)C1CCNC1` [Example 10-5, ((S)-3-[(R)-2-Benzyloxy-1-(3-chloro-2-methylphenoxy)ethyl]pyrrolidine], for which the IC50 in assay [1] and in assay [2] was not above 10 nM each time.
Regarding `CCOC[C@H](Oc1ccc(Cl)cc1C(F)(F)F)[C@H]1CCNC1` [Example 7-23, (S)-3-[(R)-1-(4-Chloro-2-trifluoromethylphenoxy)-2-ethoxyethyl]pyrrolidine], the IC50 in assay [1] and in assay [2] was not above 10 nM in each case.
For the compound `Cc1c(Cl)cccc1O[C@@H](COC(C)C)[C@H]1CCNC1` [Example 9-16, (S)-3-[(R)-1-(3-Chloro-2-methylphenoxy)-2-isopropoxyethyl]pyrrolidine], the IC50 in assay [1] and in assay [2] was not above 10 nM each time.
